From patent US10301280B2 (Plexxikon Inc., priority 2012, dated 2019)

Molecular target: c-kit kinase (Homo sapiens (Human), UniProt P10721)
Experiment: c-Kit biochemical assay (AlphaScreen)
Conditions: c-kit biochemical inhibitory activity
Summary of the method: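 AlphaScreen of biotin-(E4Y)3 (100 nM) phosphorylation by c-kit (0.1 ng) in HEPES pH 7.2, Mg/Mn, 10 μM ATP, 5% DMSO, 1 h at room temperature; variant uses 100 μM ATP, 30 nM biotin-(E4Y)10, 1 ng enzyme. PY20 acceptor/streptavidin donor signal versus 8-point concentration gives IC50.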

c-kit kinase, sequence (P10721 26-976): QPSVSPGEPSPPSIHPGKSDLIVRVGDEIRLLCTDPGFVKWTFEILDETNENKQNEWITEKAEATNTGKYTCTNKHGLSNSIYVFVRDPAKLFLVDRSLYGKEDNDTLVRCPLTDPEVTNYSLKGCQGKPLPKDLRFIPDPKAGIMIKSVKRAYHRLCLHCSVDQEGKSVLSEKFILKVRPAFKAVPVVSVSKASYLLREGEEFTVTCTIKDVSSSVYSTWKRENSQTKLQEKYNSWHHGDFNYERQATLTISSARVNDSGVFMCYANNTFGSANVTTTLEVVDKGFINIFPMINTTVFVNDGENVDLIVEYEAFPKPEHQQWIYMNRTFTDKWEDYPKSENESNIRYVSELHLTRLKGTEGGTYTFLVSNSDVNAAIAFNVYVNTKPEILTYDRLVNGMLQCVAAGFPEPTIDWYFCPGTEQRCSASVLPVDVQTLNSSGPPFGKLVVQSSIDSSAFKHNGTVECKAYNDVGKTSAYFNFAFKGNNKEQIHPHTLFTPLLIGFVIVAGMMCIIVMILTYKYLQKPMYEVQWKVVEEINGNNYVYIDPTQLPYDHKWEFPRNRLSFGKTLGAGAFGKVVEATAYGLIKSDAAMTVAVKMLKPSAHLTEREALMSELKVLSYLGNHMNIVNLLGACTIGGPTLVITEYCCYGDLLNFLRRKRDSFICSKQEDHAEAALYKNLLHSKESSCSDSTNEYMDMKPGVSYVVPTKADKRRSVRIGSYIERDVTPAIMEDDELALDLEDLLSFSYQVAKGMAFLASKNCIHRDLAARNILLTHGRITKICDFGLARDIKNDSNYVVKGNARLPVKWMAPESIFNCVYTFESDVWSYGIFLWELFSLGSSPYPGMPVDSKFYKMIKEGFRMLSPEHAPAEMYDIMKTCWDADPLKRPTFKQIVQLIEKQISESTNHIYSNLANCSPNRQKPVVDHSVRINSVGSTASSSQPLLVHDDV

Structure (SMILES)	IC50 [µM]
Cc1n[nH]c(C(=O)Nc2cnc3[nH]c(-c4cccc(N(C)C)c4)cc3c2)c1C [P-2064, N-[2-[3-(dimethylamino)phenyl]-1H-pyrrolo[2,3-b]pyridin-5-yl]-3,4-dimethyl-1H-pyrazole-5-carboxamide]	0.0001 to 1
Cc1n[nH]c(C(=O)Nc2cnc3[nH]c(-c4cccc(N5CCN(C(=O)C6CC6)CC5)c4)cc3c2)c1C [P-2118, N-[2-[3-[4-(cyclopropanecarbonyl)piperazin-1-yl]phenyl]-1H-pyrrolo[2,3-b]pyridin-5-yl]-3,4-dimethyl-1H-pyrazole-5-carboxamide]	10 to 200
Cc1cc(C(=O)Nc2cnc3[nH]c(-n4cccn4)cc3c2)[nH]n1 [P-2116, 3-methyl-N-(2-pyrazol-1-yl-1H-pyrrolo[2,3-b]pyridin-5-yl)-1H-pyrazole-5-carboxamide]	10 to 200
Cc1n[nH]c(C(=O)Nc2cnc3[nH]c(C4=CCN(C(=O)C(O)CO)CC4)cc3c2)c1C (stereo not drawn) [P-2074, N-[2-[1-(2,3-dihydroxypropanoyl)-3,6-dihydro-2H-pyridin-4-yl]-1H-pyrrolo[2,3-b]pyridin-5-yl]-3,4-dimethyl-1H-pyrazole-5-carboxamide]	0.0001 to 1
Cc1[nH]nc(C(=O)Nc2cnc3[nH]c(-c4ccc(N5CCOCC5)cc4)cc3c2)c1C [P-2059, 4,5-dimethyl-N-[2-(4-morpholinophenyl)-1H-pyrrolo[2,3-b]pyridin-5-yl]-1H-pyrazole-3-carboxamide]	0.0001 to 1
Cc1n[nH]c(C(=O)Nc2cnc3[nH]c(-c4ccccc4)cc3c2)c1C [P-2007, 3,4-dimethyl-N-(2-phenyl-1H-pyrrolo[2,3-b]pyridin-5-yl)-1H-pyrazole-5-carboxamide]	0.0001 to 1
CC(=O)N1CC=C(c2cc3cc(NC(=O)c4[nH]nc(C)c4Cl)cnc3[nH]2)CC1 [P-2061, N-[2-(1-acetyl-3,6-dihydro-2H-pyridin-4-yl)-1H-pyrrolo[2,3-b]pyridin-5-yl]-4-chloro-3-methyl-1H-pyrazole-5-carboxamide]	0.0001 to 1
CNC(=O)c1ccc(-c2cc3cc(NC(=O)c4[nH]nc(C)c4C)cnc3[nH]2)cc1 [P-2067, 3,4-dimethyl-N-[2-[4-(methylcarbamoyl)phenyl]-1H-pyrrolo[2,3-b]pyridin-5-yl]-1H-pyrazole-5-carboxamide]	1 to 10
Cc1[nH]nc(C(=O)Nc2cnc3[nH]c(-c4ccnc(N5CCN(C)CC5)c4)cc3c2)c1C [P-2069, 4,5-dimethyl-N-[2-[2-(4-methylpiperazin-1-yl)-4-pyridyl]-1H-pyrrolo[2,3-b]pyridin-5-yl]-1H-pyrazole-3-carboxamide]	1 to 10
Cc1n[nH]c(C(=O)Nc2cnc3[nH]c(C4=CCC(N)CC4)cc3c2)c1C (stereo not drawn) [P-2080, N-[2-(4-aminocyclohexen-1-yl)-1H-pyrrolo[2,3-b]pyridin-5-yl]-3,4-dimethyl-1H-pyrazole-5-carboxamide]	1 to 10
Cc1n[nH]c(C(=O)Nc2cnc3[nH]c(C4=CCN(C(=O)C5CC5)C4)cc3c2)c1Cl [P-2060, 4-chloro-N-[2-[1-(cyclopropanecarbonyl)-2,5-dihydropyrrol-3-yl]-1H-pyrrolo[2,3-b]pyridin-5-yl]-3-methyl-1H-pyrazole-5-carboxamide]	0.0001 to 1
Cc1n[nH]c(C(=O)Nc2cnc3[nH]c(-n4cccn4)cc3c2)c1C [P-2112, 3,4-dimethyl-N-(2-pyrazol-1-yl-1H-pyrrolo[2,3-b]pyridin-5-yl)-1H-pyrazole-5-carboxamide]	1 to 10
Cc1n[nH]c(C(=O)Nc2cnc3[nH]c(-c4ccc(C(=O)NC5CC5)cc4)cc3c2)c1C [P-2148, N-[2-[4-(cyclopropylcarbamoyl)phenyl]-1H-pyrrolo[2,3-b]pyridin-5-yl]-3,4-dimethyl-1H-pyrazole-5-carboxamide]	0.0001 to 1
Cc1n[nH]c(C(=O)Nc2cnc3[nH]c(-c4ccc(C#N)c(N5CCOCC5)c4)cc3c2)c1C [P-2081, N-[2-(4-cyano-3-morpholino-phenyl)-1H-pyrrolo[2,3-b]pyridin-5-yl]-3,4-dimethyl-1H-pyrazole-5-carboxamide]	1 to 10
Cc1n[nH]c(C(=O)Nc2cnc3[nH]c(C4=CCN(C(=O)N5CCOCC5)C4)cc3c2)c1Cl [P-2062, 4-chloro-3-methyl-N-[2-[1-(morpholine-4-carbonyl)-2,5-dihydropyrrol-3-yl]-1H-pyrrolo[2,3-b]pyridin-5-yl]-1H-pyrazole-5-carboxamide]	0.0001 to 1
O=C(Nc1cnc2[nH]c(-c3ccccc3)cc2c1)c1[nH]ncc1Br [P-2005, 4-bromo-N-(2-phenyl-1H-pyrrolo[2,3-b]pyridin-5-yl)-1H-pyrazole-5-carboxamide]	1 to 10
Cc1n[nH]c(C(=O)Nc2cnc3[nH]c(-c4cccc(N5CCCC5)c4)cc3c2)c1C [P-2079, 3,4-dimethyl-N-[2-(3-pyrrolidin-1-ylphenyl)-1H-pyrrolo[2,3-b]pyridin-5-yl]-1H-pyrazole-5-carboxamide]	1 to 10
Cc1n[nH]c(C(=O)Nc2cnc3sc(-c4ccccc4)nc3c2)c1C [P-2144, 3,4-dimethyl-N-(2-phenylthiazolo[5,4-b]pyridin-6-yl)-1H-pyrazole-5-carboxamide]	1 to 10
Cc1[nH]nc(C(=O)Nc2cnc3[nH]c(-c4cccc(N5CCOCC5)c4)cc3c2)c1C [P-2070, 4,5-dimethyl-N-[2-(3-morpholinophenyl)-1H-pyrrolo[2,3-b]pyridin-5-yl]-1H-pyrazole-3-carboxamide]	1 to 10
Cc1n[nH]c(C(=O)Nc2cnc3[nH]c(C4=CCN(C(=O)CN5CCOCC5)CC4)cc3c2)c1C [P-2073, 3,4-dimethyl-N-[2-[1-(2-morpholinoacetyl)-3,6-dihydro-2H-pyridin-4-yl]-1H-pyrrolo[2,3-b]pyridin-5-yl]-1H-pyrazole-5-carboxamide]	1 to 10
Cc1n[nH]c(C(=O)Nc2cnc3[nH]c(-c4c(C)noc4C)cc3c2)c1C [P-2065, N-[2-(3,5-dimethylisoxazol-4-yl)-1H-pyrrolo[2,3-b]pyridin-5-yl]-3,4-dimethyl-1H-pyrazole-5-carboxamide]	1 to 10
